Data taken from US11318157B2, “6-6 bicyclic aromatic ring substituted nucleoside analogues for use as PRMT5 inhibitors” (Janssen Pharmaceutica NV, priority 2015, dated 2022).
One block for each compound: values may come before it.

Experiments:
PRMT5 = PRMT5 (Homo sapiens, UniProt O14744); conditions: literature statement; cited from earlier work
MCL xenograft models = conditions: multiple MCL xenograft models; cited from earlier work
PRMT5-MEP50 enzyme [1] = biological target: T1, PRMT5-MEP50 enzyme (Homo sapiens, UniProt O14744); experiment: In vitro assay 1a: high throughput mass spectrometer assay of SAH formation, 10 nM enzyme, 60 min; type: biochemical; conditions: averaged values, PRMT5-MEP50, 10 nM enzyme
T1 construct: One virus expresses full length human PRMT5 with Flag-tag at N-terminus; Flag (N); purchased Charles River (Argenta); host or cells: insect cells (Sf9), baculovirus co-infection
T1 sequence (O14744 whole entry): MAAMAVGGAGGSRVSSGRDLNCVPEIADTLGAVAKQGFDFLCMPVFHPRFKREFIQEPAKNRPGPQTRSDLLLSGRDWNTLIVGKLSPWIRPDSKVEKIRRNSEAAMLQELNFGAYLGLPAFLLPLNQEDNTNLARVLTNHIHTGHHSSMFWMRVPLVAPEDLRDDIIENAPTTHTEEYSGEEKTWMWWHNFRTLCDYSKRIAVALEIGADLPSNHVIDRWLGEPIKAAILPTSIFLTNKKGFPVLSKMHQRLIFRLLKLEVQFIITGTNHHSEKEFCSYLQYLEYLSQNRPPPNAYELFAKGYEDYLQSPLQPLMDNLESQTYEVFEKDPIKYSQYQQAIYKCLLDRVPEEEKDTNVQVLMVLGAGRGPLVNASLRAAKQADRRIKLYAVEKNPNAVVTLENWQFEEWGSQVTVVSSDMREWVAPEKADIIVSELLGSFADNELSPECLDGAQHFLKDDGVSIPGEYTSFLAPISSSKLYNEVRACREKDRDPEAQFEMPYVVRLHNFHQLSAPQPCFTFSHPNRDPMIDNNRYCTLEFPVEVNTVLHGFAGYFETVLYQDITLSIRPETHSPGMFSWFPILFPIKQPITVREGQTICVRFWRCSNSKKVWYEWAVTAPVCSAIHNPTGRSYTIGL
T1 sequence (Q9BQA1 whole entry partner): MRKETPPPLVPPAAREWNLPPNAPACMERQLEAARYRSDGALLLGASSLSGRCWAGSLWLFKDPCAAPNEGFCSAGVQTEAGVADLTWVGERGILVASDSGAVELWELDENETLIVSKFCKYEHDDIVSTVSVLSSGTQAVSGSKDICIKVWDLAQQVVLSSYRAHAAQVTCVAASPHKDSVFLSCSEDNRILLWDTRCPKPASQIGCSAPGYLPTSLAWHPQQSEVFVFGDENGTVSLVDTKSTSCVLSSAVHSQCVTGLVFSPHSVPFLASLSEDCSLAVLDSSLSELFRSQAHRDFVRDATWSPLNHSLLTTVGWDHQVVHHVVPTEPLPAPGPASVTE
Summary of the method: (§1)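 Flag-PRMT5/His-MEP50 complex from Sf9 cells, with 1 μM SAM and 0.3 μM full-length histone H2A in pH 8.5 Tris buffer, at 30 °C; 10 nM enzyme for 60 min (1a) or 1.25 nM for 120 min (1b). Formic acid-quenched SAH read by RapidFire MS/MS; 11-point IC50 with Hill fit.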

PRMT5-MEP50 enzyme [2] = biological target: T1, PRMT5-MEP50 enzyme; experiment: In vitro assay 1b: high throughput mass spectrometer assay of SAH formation, 1.25 nM enzyme, 120 min; type: biochemical
Summary of the method: as §1

[3] = tested on: nuclear symmetric Arginine dimethylation in A549 cells; experiment: PD assay (assay 2): inhibition of nuclear symmetric Arginine dimethylation (SYM10 immunohistochemistry), 48 h; type: cell-based; conditions: Homo sapiens, A549, averaged values; PD assay, A549 cells, symmetric Arginine dimethylation; read-out: pIC50 Assay 2 (converted)
Summary of the method: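 Cells seeded at 400/well overnight, then treated 48 h at 37 °C, final DMSO 0.2%. Fixed and stained with SYM10 antibody plus Alexa 488 secondary, Hoechst and CellMask, then imaged on Opera. Normalized to DMSO (high) and 10 μM reference compound (low); averaged pIC50 reported.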

[4] = read-out: pIC50 Assay 1a (converted)
[5] = averaged values, PRMT5-MEP50, 1.25 nM enzyme, 120 min, read-out: pIC50 Assay 1b (converted)

Sequence of PRMT5 (O14744 whole entry, species assumed): as the sequence (O14744 whole entry) above
Sequence of PRMT5 (Q9BQA1 whole entry partner, species assumed): as the sequence (Q9BQA1 whole entry partner) above

Compound: O=C(NC[C@H](O)CN1CCc2ccccc2C1)c1cc(NC2COC2)ncn1 [EPZ015666]
potency as PRMT5 inhibitor (PRMT5): sub-nanomolar | anti-tumour activity (MCL xenograft models): anti-tumour activity

Compound: Nc1ncnc2c1ccn2[C@@H]1O[C@H](/C=C/c2ccc3cc(Cl)cnc3c2)[C@@H](O)[C@H]1O [Compound 57a]
IC50 (PRMT5-MEP50 enzyme [1]; [4]): 31.6 nM | IC50 (PRMT5-MEP50 enzyme [2]; [5]): 50.1 nM | IC50 [3]: 63.1 nM

Compound: Nc1ncnc2c1ccn2[C@@H]1C[C@H](OCc2ccc3cccnc3c2)[C@@H](O)[C@H]1O [Compound 64]
IC50 (PRMT5-MEP50 enzyme [1]; pIC50 Assay 1a): 126 nM | IC50 (PRMT5-MEP50 enzyme [2]): 794 nM | IC50 [3]: ~1070 nM

Compound: Nc1ncnc2c1ccn2[C@@H]1O[C@H](COc2ccc3cc(C4CC4)cnc3c2)[C@@H](O)[C@H]1O [Compound 84]
IC50 (PRMT5-MEP50 enzyme [1]; [4]): 15.8 nM | IC50 (PRMT5-MEP50 enzyme [2]; [5]): 79.4 nM | IC50 [3]: 200 nM

Compound: Cc1nc(N)c2ccn([C@@H]3O[C@H](COc4ccc5cc(Br)cnc5c4)[C@@H](O)[C@H]3O)c2n1 [Compound 43]
IC50 (PRMT5-MEP50 enzyme [1]; [4]): 79.4 nM | IC50 (PRMT5-MEP50 enzyme [2]; [5]): 200 nM | IC50 [3]: 316 nM

Compound: Nc1ncnc2c1ccn2[C@@H]1O[C@H](CCc2ccc3ccncc3c2)[C@@H](O)[C@H]1O [Compound 103]
IC50 (PRMT5-MEP50 enzyme [1]; [4]): 398 nM | IC50 (PRMT5-MEP50 enzyme [2]; [5]): 1260 nM | IC50 [3]: 7940 nM

Compound: Nc1ncnc2c1ccn2[C@@H]1O[C@H](COc2cc3ncccc3cc2Cl)[C@@H](O)[C@H]1O [Compound 91]
IC50 (PRMT5-MEP50 enzyme [1]; [4]): 126 nM | IC50 (PRMT5-MEP50 enzyme [2]; [5]): 501 nM | IC50 [3]: 398 nM

Compound: Nc1ncnc2c1ccn2[C@@H]1C[C@H](CNc2ccc3cc(Br)cnc3c2)[C@@H](O)[C@H]1O [Compound 54]
IC50 (PRMT5-MEP50 enzyme [1]; [4]): 15.8 nM | IC50 (PRMT5-MEP50 enzyme [2]; [5]): 15.8 nM | IC50 [3]: 31.6 nM

Compound: Cc1nc(N)c2ccn([C@@H]3O[C@H](CNc4ccc5cc(Br)cnc5c4)[C@@H](O)[C@H]3O)c2n1 [Compound 53]
IC50 (PRMT5-MEP50 enzyme [1]; [4]): 39.8 nM | IC50 (PRMT5-MEP50 enzyme [2]; [5]): 50.1 nM | IC50 [3]: 50.1 nM

Compound: Nc1ncnc2c1ccn2[C@@H]1O[C@H](COc2ccc3cncnc3c2)[C@@H](O)[C@H]1O [Compound 16]
IC50 (PRMT5-MEP50 enzyme [1]; [4]): 251 nM | IC50 (PRMT5-MEP50 enzyme [2]; [5]): 1260 nM | IC50 [3]: 5010 nM

Other lines, results leading:

IC50 (PRMT5-MEP50 enzyme [1]; [4]): 10 nM | IC50 (PRMT5-MEP50 enzyme [2]; [5]): 63.1 nM | IC50 [3]: 50.1 nM
Compound: CNc1ccc2ccc(CC[C@H]3O[C@@H](n4ccc5cncnc54)[C@H](O)[C@@H]3O)cc2n1 [Compound 169]

IC50 (PRMT5-MEP50 enzyme [1]; [4]): 10 nM | IC50 (PRMT5-MEP50 enzyme [2]; [5]): 79.4 nM | IC50 [3]: 25.1 nM
Compound: COc1ncnc2c1ccn2[C@@H]1O[C@H](COc2ccc3ccc(N)nc3c2)[C@@H](O)[C@H]1O [Compound 187]

IC50 (PRMT5-MEP50 enzyme [1]; [4]): 0.794 nM | IC50 (PRMT5-MEP50 enzyme [2]; [5]): 6.31 nM | IC50 [3]: 3.16 nM
Compound: O[C@@H]1[C@@H](CCc2ccc3ccc(NCc4ccc(Cl)cc4)nc3c2)C[C@@H](n2ccc3cncnc32)[C@@H]1O [Compound 171]

IC50 (PRMT5-MEP50 enzyme [1]; [4]): 1 nM | IC50 (PRMT5-MEP50 enzyme [2]; [5]): 7.94 nM | IC50 [3]: 10 nM
Compound: Nc1ncc2ccc(CC[C@H]3C[C@@H](n4ccc5c(N)ncnc54)[C@H](O)[C@@H]3O)cc2n1 [Compound 216]
